Test results reported in US20110020462A1, “NEW USE OF HISTONE DEACETYLASE INHIBITORS IN CHANGING MRJP3 PROTEIN IN ROYAL JELLY” (NATUREWISE BIOTECH & MEDICALS CORPORATION, priority 2009, published 2011).

How the values were obtained:
[1] = test system: larvae of the queen bee; assay: Growth (weight) of larvae of the queen bee fed royal jelly secreted by young worker bees fed the test substance in sugar water; type: in vivo, Apis mellifera
[2] = test system: MRJP3; assay: Ratio of 68 to 64 kDa MRJP3 protein in royal jelly (SDS-PAGE); type: in vivo, Apis mellifera
Experimental: Beehives with the similar expression level of MRJP3 protein were selected for use, and two beehives were tested in each control or experimental group. On the first day, the honey originally contained in the beehives was removed by shaking, and the bees (Apis mellifera) were fed sugar water twice (normal sugar water for the control group and special sugar water for the experimental group) for two days. The special sugar water was a 10-fold dilution of the formulated sugar powder in water. On the third day, 1.5-day old larvae (which were the offspring of the same queen) were inserted into the beehives, and the bees were fed once (normal sugar water for the control group and special sugar water for the experimental group). After 24, 48, and 72 hrs, 20 larvae and the royal jelly in the cells of said 20 larvae were collected for qualitative, quantitative, and proteomic analyses.
For qualitative analysis, royal jelly and sterilized water at a weight ratio of 1:10 was mixed for extraction. A particular amount of the proteins in the aqueous layer were removed for determination of protein concentration by Bradford dye-binding method (Bio-Rad protein assay, Bio-Rad Laboratories, Inc.). The absorption at 595 nm of the protein samples was determined by Elisa Reader (Bio-TEK). […]

CC(C)=CCC/C(C)=C/Cc1c(O)cc2c(c1O)C(=O)C[C@@H](c1ccc(O)c(O)c1)O2 [Propolin C, propolin C]
larva weight increase ([1]; Example 4, 100 mg/kg, period of 48 to 72 hours, control around 3.58 fold): around 6.30 fold
Average weight of each larva ([1]; Table 5, 50 mg/kg, 24 h, control 3.52): 2.40 mg
Average weight of each larva ([1]; Table 5, 50 mg/kg, 48 h, control 13.45): 15.2 mg
Average weight of each larva ([1]; Table 5, 50 mg/kg, 72 h, control 61.60): 70.17 mg
Average weight of each larva ([1]; Table 5, 100 mg/kg, 24 h, control 3.52): 2.38 mg
Average weight of each larva ([1]; Table 5, 100 mg/kg, 48 h, control 13.45): 13.48 mg
Average weight of each larva ([1]; Table 5, 100 mg/kg, 72 h, control 61.60): 98.48 mg
protein components of the royal jelly secreted by young worker bees ([2]; 50 to 100 mg/kg): significantly changed

CC(C)=CCC/C(C)=C/Cc1c([C@@H]2CC(=O)c3c(cc(O)c(CC=C(C)C)c3O)O2)ccc(O)c1O [Propolin G, propolin G]
larva weight increase ([1]; Example 5, 300 mg/kg, period of 24 to 48 hours, control around 1.60 fold): around 5.05 fold
larva weight increase ([1]; Example 5, 300 mg/kg, period of 48 to 72 hours, control around 1.22 fold): around 5.79 fold
Average weight of each larva ([1]; Table 6, 150 mg/kg, 24 h, control 5.23): 5.73 mg
Average weight of each larva ([1]; Table 6, 150 mg/kg, 48 h, control 13.57): 54.2 mg
Average weight of each larva ([1]; Table 6, 150 mg/kg, 72 h, control 30.07): 156.63 mg
Average weight of each larva ([1]; Table 6, 300 mg/kg, 24 h, control 5.23): 3.93 mg
Average weight of each larva ([1]; Table 6, 300 mg/kg, 48 h, control 13.57): 23.80 mg
Average weight of each larva ([1]; Table 6, 300 mg/kg, 72 h, control 30.07): 161.73 mg
Average weight of each larva ([1]; Table 6, 600 mg/kg, 24 h, control 5.23): 2.70 mg
Average weight of each larva ([1]; Table 6, 600 mg/kg, 48 h, control 13.57): 13.67 mg
Average weight of each larva ([1]; Table 6, 600 mg/kg, 72 h, control 30.07): 85.67 mg
Average weight of each larva ([1]; Table 8, positive control 150 mg/kg, 24 h, control 1.9): 3.6 mg
Average weight of each larva ([1]; Table 8, positive control 150 mg/kg, 48 h, control 13.3): 41.2 mg
Average weight of each larva ([1]; Table 8, positive control 150 mg/kg, 72 h, control 38.4): 178.6 mg

O=C(CCCCCCC(=O)Nc1ccccc1)NO [SAHA, suberoylanilide hydroxamide acid, reference compound]
Average weight of each larva ([1]; Table 8, 5 mg/kg, 24 h, control 1.9): 4.0 mg
Average weight of each larva ([1]; Table 8, 5 mg/kg, 48 h, control 13.3): 28.2 mg
Average weight of each larva ([1]; Table 8, 5 mg/kg, 72 h, control 38.4): 149.3 mg
Average weight of each larva ([1]; Table 8, 15 mg/kg, 24 h, control 1.9): 7.3 mg
Average weight of each larva ([1]; Table 8, 15 mg/kg, 48 h, control 13.3): 41.0 mg
Average weight of each larva ([1]; Table 8, 15 mg/kg, 72 h, control 38.4): 149.2 mg
ratio of the protein components of the royal jelly secreted by young worker bees ([2]; 5 to 15 mg/kg): significantly changed
